# In US20260000781A1, “FC CONJUGATES INCLUDING AN INHIBITOR OF CD73 AND USES THEREOF” (Cidara Therapeutics, Inc., priority 2022, published 2026):
# Where two headings read alike, the source gives them in different places.
# Tested on: human PBMCs inhibited by AMP
# Test: PBMC activation assay by flow cytometry (rescue of AMP suppressed cells)
# Format: cell-based
# Experimental: (§1) Human PBMCs (StemCell Technologies cat no. 70025) prepared in ImmunoCult™—XF T cell Expansion medium (StemCell Technologies cat no. 10981) were seeded at 1×10^5 cells per well (100 μL of 1×10^6 cells/mL) in the presence or absence of T cell activator anti-CD3/CD28/CD2 (StemCell Technologies cat no. 10970) in 96 well round bottom plates (Corning cat no. 3788). Ten-fold serial dilutions of each test article was prepared, resulting in final concentrations ranging from 0.1 nM-10,000 nM. 50 μL of test article was added to the cells, followed by 50 μL of adenosine 5′ monophosphate (AMP; MilliporeSigma cat no. A1752) for a final concentration of 30 μM. Plates were incubated at 37° C. with 5% CO2 for 72 h. After 72 h the cells were centrifuged for 5 min at 300×g at 4° C. then washed twice with cell staining buffer (BioLegend cat no. 420201). Cells were incubated with Fc block (Unlabeled, Clone: 3070; BD Biosciences cat no. 5642220) for 10 min at 4° C. Cells were stained with anti-human CD25 antibody, clone 2A3, PE (StemCell Technologies cat no. 60153PE) for 20 min at 4° C. protected from light. Cells were washed twice with cell staining buffer and resuspended in 200 μL of cell staining buffer. Samples were acquired using a Cytek Northern Lights flow cytometry system. CD25^+ by flow cytometry was used as the readout to measure PBMC activation after AMP inhibition. Samples were analyzed using FlowJo version 10. Percent rescue […] was plotted using GraphPad Prism Version 6 and EC50 values were generated using nonlinear regression analysis for total PBMCs or CD8^+ T cells using CD25^+ as read-out or granzyme B^+.
# as §1, with “test article were prepared, resulting” for “test article was prepared, resulting”, “nonlinear regression analysis.” for “nonlinear regression analysis for total PBMCs or CD8^+ T cells using CD25^+ as read-out or granzyme B^+.”
# Human PBMCs (StemCell Technologies cat no. 70025) prepared in ImmunoCult™—XF T cell Expansion medium (StemCell Technologies cat no. 10981) were seeded at 1×10^5 cells per well (100 μL of 1×10^6 cells/mL) in the presence or absence of T cell activator anti-CD3/CD28/CD2 (StemCell Technologies cat no. 10970) in 96 well round bottom plates (Corning cat no. 3788). Ten-fold serial dilutions of each test article was prepared in medium (ranging from 4,000 nM-0.4 nM), resulting in final concentrations ranging from 1,000 nM-0.1 nM. 50 μL of test article was added to the cells, followed by 50 μL of adenosine 5′ monophosphate (AMP; MilliporeSigma cat no. A1752) for a final concentration of 30 μM. […]
# [1] = 30 μM AMP, 72 h, read-out: CD8+CD25+ EC50
# [2] = 30 μM AMP, 72 h, read-out: CD8+granzyme B+ EC50
# [3] = read-out: 30 μM AMP EC50, CD25+ as a read-out, total PBMCs, 72 h
structure (smiles),measurement,setting,value
O=P(O)(O)COC[C@H]1O[C@@H](n2ncc3c(N4CC5(CCc6ccccc65)C4)nc(Cl)nc32)[C@H](O)[C@@H]1O [SHR170008],EC50,[1],598 nM
same,EC50,[2],212 nM
same,EC50,[3],374 nM
COC[C@](CO)(OC[C@H]1O[C@@H](n2ncc3c(NC4CCCC4)nc(Cl)nc32)[C@H](O)[C@@H]1O)P(=O)(O)O [OP5244],EC50,[3],8 nM
same,EC50,"read-out: 30 μM AMP EC50, batches of Conjugate 172c, CD25+ as a read-out, 72 h (Table 13)",17 nM
C[C@H](Nc1cc(Cl)nc2c1cnn2[C@@H]1O[C@H](COP(=O)(O)CP(=O)(O)O)[C@@H](O)[C@H]1O)c1ccccc1F [AB680],EC50,"Homo sapiens, PBMC, read-out: 30 μM AMP EC50 [nM], CD25+ as a read-out, total PBMCs, 72 h",9 nM
same,EC50,"Homo sapiens, PBMC, read-out: EC50 [nM] (median, n = 3) CD4+CD25+, 30 μM AMP, 72 h",10 nM
same,EC50,"Homo sapiens, PBMC, read-out: EC50 [nM] (median, n = 3) CD8+CD25+, 30 μM AMP, 72 h",10 nM
same,EC50,"Homo sapiens, PBMC, read-out: EC50 [nM] (median, n = 3) CD8+Granzyme B+, 30 μM AMP, 72 h",47 nM
same,EC50,"Homo sapiens, PBMC, 30 μM AMP, 72 h, CD4+CD25+, CD8+CD25+, CD8+Granzyme B+, read-out: EC50 values (range over the read-outs)",10 to 54 nM
same,EC50,"Homo sapiens, PBMC, 30 μM AMP, 72 h, read-out: CD8+CD25+ EC50",8.1 nM
same,EC50,"Homo sapiens, PBMC, 30 μM AMP, 72 h, read-out: CD8+granzyme B+ EC50",1.4 nM
COC[C@](CO)(OC[C@H]1O[C@@H](n2ncc3c(NC4CCCC4)nc(Cl)nc32)[C@H](O)[C@@H]1O)P(=O)(O)O [OP-5244],EC50,[1],5.9 nM
same,EC50,[2],1.4 nM
same,EC50,"read-out: EC50 [nM] (median, n = 3) CD4+CD25+, 30 μM AMP, 72 h",7 nM
same,EC50,"read-out: EC50 [nM] (median, n = 3) CD8+CD25+, 30 μM AMP, 72 h",7 nM
same,EC50,"read-out: EC50 [nM] (median, n = 3) CD8+Granzyme B+, 30 μM AMP, 72 h",8 nM
